{"source": "paper PMC4810081", "about": "“Venetoclax (ABT-199) Might Act as a Perpetrator in Pharmacokinetic Drug–Drug Interactions” (Pharmaceutics, 2016)", "key": {"[1]": {"assay": "Intestinal concentration by FDA formula", "conditions": "after a dose of 250 mg, according to FDA formula (dose/250 mL)", "experimental": "Thus, the question of whether these effects will also play a role in the clinical situation arises. Therapeutic plasma concentrations of venetoclax reach about 5 µM [3, 34, 35], a similar range to concentrations inhibiting drug transporters and CYP in vitro. […] Thus, even the moderate inhibition of P-gp by venetoclax might be relevant and should be tested in vivo."}, "[2]": {"biological_target": "T1, CYP2D6 (Homo sapiens, UniProt P10635)", "T1 construct": "purchased Becton Dickinson Biosciences (Heidelberg, Germany)", "T1 sequence (P10635 whole entry)": "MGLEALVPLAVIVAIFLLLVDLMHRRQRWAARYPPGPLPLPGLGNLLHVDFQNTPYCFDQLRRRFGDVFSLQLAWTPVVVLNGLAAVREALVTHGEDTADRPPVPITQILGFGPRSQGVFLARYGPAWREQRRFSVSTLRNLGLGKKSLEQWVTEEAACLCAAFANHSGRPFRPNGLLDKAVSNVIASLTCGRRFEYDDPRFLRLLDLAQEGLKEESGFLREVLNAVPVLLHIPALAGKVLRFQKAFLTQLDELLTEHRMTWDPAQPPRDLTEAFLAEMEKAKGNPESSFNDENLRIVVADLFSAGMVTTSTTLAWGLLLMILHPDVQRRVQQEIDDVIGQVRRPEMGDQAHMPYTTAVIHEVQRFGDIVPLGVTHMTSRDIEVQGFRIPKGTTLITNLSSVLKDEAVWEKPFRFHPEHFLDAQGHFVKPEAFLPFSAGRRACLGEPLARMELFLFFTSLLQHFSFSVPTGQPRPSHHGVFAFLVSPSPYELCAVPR", "assay": "CYP2D6 inhibition, CYP2D6/AMMC High Throughput Inhibitor Screening Kit", "type": "in vitro ADME", "conditions": "recombinant CYP, fluorogenic substrate, 0.009–20 µM tested", "experimental": "Inhibition studies for CYP2B6, CYP2D6, CYP2C19 and CYP3A4 were performed with the CYP2B6/EFC, CYP2D6/AMMC, the CYP2C19/CEC, and the CYP3A4/BFC High Throughput Inhibitor Screening Kit according to the manufacturer’s instructions. The kits contain the respective recombinant CYP and fluorogenic substrates, which are blocked dyes emitting a fluorescence signal when cleaved by the enzyme. For testing CYP1A2 inhibition, the P450-Glo CYP1A2 Screening System was used according to the manufacturer’s instructions. The kit contains the luminogenic CYP1A2 substrate luciferin-ME, which is converted by CYP1A2 into luciferin-generating light when incubated with the luciferin detection reagent of the kit. Eight concentrations of venetoclax in duplicates (0.009–20 µM) were tested in the fluorescence assays, and eight concentrations in triplicate (0.05–100 µM) were tested for the luminogenic assay. Each experiment was conducted in triplicate."}, "[3]": {"tested_on": "ABCB1", "assay": "Induction assay, ABCB1 mRNA by real-time RT-PCR in LS180 cells", "type": "in vitro ADME, human", "conditions": "four days, at higher concentrations", "experimental": "(§1) LS180 cells. The human colon adenocarcinoma cell line LS180 (available at ATCC, Manassas, VA, USA) is one of the standard models for investigating pregnane X receptor (PXR) and aryl hydrocarbon receptor (AhR) mediated induction and was thus used for induction experiments. Cells were cultured under standard cell culture conditions with DMEM supplemented with 10% FCS, 2 mM of glutamine, 100 U/mL of penicillin, 100 µg/mL of streptomycin sulfate, and 0.1 mM of nonessential amino acids.\n(§2) For the induction experiments, LS180 cells were seeded in 75 cm^2 culturing flasks and incubated for three days. […]\n(§3) RNA was isolated using the GenElute™ Mammalian Total RNA Miniprep Kit, and cDNA was synthesized with the RevertAid™ H Minus First Strand cDNA Synthesis Kit according to the manufacturer's instructions. mRNA expression was quantified by real-time RT-PCR with the LightCycler® 480 (Roche Applied Science, Mannheim, Germany) as described previously. […] Data were evaluated via calibrator-normalized relative quantification with efficiency correction using the LightCycler® 480 software version 1.5 (Roche Applied Science, Mannheim, Germany). […] The following target genes were quantified: CYP1A1, CYP1A2, CYP3A4, ABCB1, ABCC2, ABCG2, SLCO1B1 (coding for OATP1B1), UDP-glucuronosyltransferase 1A3 (UGT1A3), and UGT1A9."}, "[4]": {"tested_on": "UGT1A9", "assay": "Induction assay, UGT1A9 mRNA by real-time RT-PCR in LS180 cells", "type": "in vitro ADME, human", "conditions": "four days, 10 µM", "experimental": "as §1, §2, §3"}, "[5]": {"tested_on": "MDCKII", "assay": "Growth inhibition assay in MDCKII cells", "type": "cell-based", "conditions": "Canis lupus familiaris, MDCK-II; MDCKII parental cells", "excerpt": "MDCKII cells. The transporter over-expressing cell lines MDCKII-MDR1 [5], MDCKII-MRP2 [6], and MDCKII-BCRP [7] and the corresponding parental cell line MDCKII were used to assess the sensitivity of cells with and without P-gp, multidrug resistance-associated protein 2 (MRP2/ABCC2), or BCRP expression. Moreover, MDCKII-BCRP cells were used to assess BCRP inhibition by venetoclax. MDCKII over-expressing cell lines were kindly provided by A. H. Schinkel and P. Borst (Amsterdam, The Netherlands). The parental cell line MDCKII (available at ATCC, Manassas, VA, USA) was used as a control. The cells were cultured in Dulbecco’s Modified Eagle’s Medium (DMEM) containing 10% FCS, 2 mM of glutamine, 100 U/mL of penicillin, and 100 µg/mL of streptomycin sulfate.\nGrowth inhibition assays in LS180 cells were conducted to determine suitable maximum concentrations for the induction assay without profound antiproliferative effects. Proliferation was quantified by crystal violet staining of the surviving cells as described previously. Each experiment was performed at least in triplicate with n = 8 wells for each concentration (0.1–100 µM). The IC20 for proliferation inhibition by venetoclax was 8.4 ± 1.0 µM; thus, the maximum concentration for the induction assay was set to 10 µM, ensuring that about 80% of the cells will survive. […]"}, "[6]": {"tested_on": "LLC-PK1", "assay": "Growth inhibition assay in LLC-PK1 cells", "type": "cell-based, porcine", "conditions": "Sus scrofa", "experimental": "LLC-PK1 and L-MDR1 cells. L-MDR1 cells, a porcine kidney epithelial cell line over-expressing the human ABCB1 gene and the corresponding parental control cell line LLC-PK1 (available from ATCC, Manassas, VA, USA) were used to assess the sensitivity of cells with and without P-gp over-expression. L-MDR1 cells were kindly provided by A. H. Schinkel (The Netherlands Cancer Institute, Division of Experimental Therapy, Amsterdam, The Netherlands). The cells were cultured under standard cell culture conditions with medium M199 supplemented with 10% FCS, 2 mM of glutamine, 100 U/mL of penicillin, and 100 µg/mL of streptomycin sulfate. To maintain P-gp/ABCB1 expression the culture medium for L-MDR1 was supplemented with 0.64 µM of vincristine. One day before seeding the cells for the growth inhibition assay, both cell lines were fed with a vincristine-free culture medium.\nGrowth inhibition assays in LS180 cells were conducted to determine suitable maximum concentrations for the induction assay without profound antiproliferative effects. Proliferation was quantified by crystal violet staining of the surviving cells as described previously. Each experiment was performed at least in triplicate with n = 8 wells for each concentration (0.1–100 µM). […]"}}}
{"smiles": "CC1(C)CCC(CN2CCN(c3ccc(C(=O)NS(=O)(=O)c4ccc(NCC5CCOCC5)c([N+](=O)[O-])c4)c(Oc4cnc5[nH]ccc5c4)c3)CC2)=C(c2ccc(Cl)cc2)C1", "note": "[Venetoclax]", "values": [{"measurement": "concentration reached in the intestine", "setting": "[1]", "value": "about 1 mM"}, {"measurement": "IC50 CYP2D6 inhibition", "setting": "[2]", "value": "no inhibition"}, {"measurement": "mRNA expression of ABCB1", "setting": "[3]", "value": "suppressed"}, {"measurement": "mRNA expression of UGT1A9", "setting": "[4]", "value": "induced"}, {"measurement": "IC50", "setting": "[5]", "value": "15.2 ± 2.4", "unit": "µM"}, {"measurement": "IC50", "setting": "[6]; LLC-PK1, LLC-PK1 + LY335979 (1 µM)", "value": "24.9 ± 1", "unit": "µM"}, {"measurement": "IC50", "setting": "[6]; LLC-PK1, LLC-PK1 parental cells", "value": "21 ± 0.7", "unit": "µM"}]}
